Data as given in patent publication US11584736B2, “Heterocyclic P2Y14 receptor antagonists” (The United States of America, as represented by the …, priority 2018, dated 2023).
Where two headings read alike, the source gives them in different places.

Tests used:
[1] = tested on: eosinophils in the bronchoalveolar lavage fluid; experiment: Protease-mediated mouse model of asthma; format: in vivo; conditions: 10 mg/kg i.p., 30 minutes prior to ovalbumin challenge at day 14, P<0.01 vs vehicle
Protocol: […][…] antagonists were tested in vivo in a protease-mediated mouse model of asthma and found to be effective in reducing the presence of eosinophils in the bronchoalveolar lavage fluid. The animals were first sensitized with ovalbumin/Aspergillus oryzae extract on days 0 and 7. Antagonists were injected i.p. at a dose of 10 mg/kg, 30 minutes prior to an ovalbumin challenge at day 14. […] Both […][…] antagonist effects were statistically significant (P<0.01) compared to vehicle control.

hP2Y14R = target: T1, hP2Y14R (Homo sapiens, UniProt Q15391); experiment: Competitive fluorescent binding assay, flow cytometry of whole hP2Y14R-CHO cells
T1 construct: expressed in transfected cells
T1 sequence (Q15391 1-338): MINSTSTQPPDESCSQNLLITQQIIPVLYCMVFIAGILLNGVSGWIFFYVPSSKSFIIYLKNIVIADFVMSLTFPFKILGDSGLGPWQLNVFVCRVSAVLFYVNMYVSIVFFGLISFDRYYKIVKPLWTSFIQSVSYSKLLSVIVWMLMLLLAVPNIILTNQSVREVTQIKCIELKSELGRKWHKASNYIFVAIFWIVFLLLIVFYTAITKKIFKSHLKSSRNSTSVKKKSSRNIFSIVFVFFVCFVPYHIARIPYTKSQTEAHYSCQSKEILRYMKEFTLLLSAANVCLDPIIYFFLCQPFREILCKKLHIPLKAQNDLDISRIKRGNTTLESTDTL
Protocol: Cell Culture: Chinese hamster ovary cells stably expressing the hP2Y14—R (CHO-hP2Y14R) were grown in Dulbecco's Modified Eagle's Medium (DMEM)/Ham's F12 (F12) 1:1 supplemented with 10% FBS, 100 units/mL penicillin, […] streptomycin, 2 mM L-glutamine and 0.500 mg/mL G418 Sulfate (Geneticin). Cells were maintained in a humidified atmosphere and sterile incubation conditions held at 37° C. and 5% CO2 (g).
Competitive Assay: Competitive fluorescent assays were performed on a BD FACSCalibur flow cytometer in conjunction with the softwares BD Bioscience PlateManager and CellQuest. All cell culture growth and assays for this procedure were conducted on flat-bottom 96-well plates. CHO-hP2Y14R cells were grown to approximately 80-90% confluency prior to assays. The 96-well plate format enabled four compounds to be analyzed in triplicate per run. All unlabeled ligand compounds are stored as 5 mM stock solutions in dimethyl sulfoxide (DMSO). Serial dilutions of each compound were prepared in complete medium. Cells were initially incubated with unlabeled compounds for 30 min at 37° C. and 5% CO2 (g). […] After three consecutive washes in sterile 1× Dulbecco's Phosphate Buffered Saline (DPBS) minus Ca^2+/Mg^2+, cells were detached from the plate using Corning Cellstripper™ to reduce damaging the hP2Y14R protein. Final cell suspensions for flow cytometry was in DPBS minus Ca^2+/Mg^2+.
IC50 values were determined from the gathered data with the program GraphPad Prism version 7.0.

mP2Y14R = target: T2, mP2Y14R (Mus musculus, UniProt Q9ESG6); experiment: Fluorescence binding method at mP2Y14R expressed in HEK293 cells; conditions: Table 3
T2 construct: expressed in transfected cells; host or cells: HEK293 cells
T2 sequence (Q9ESG6 1-338): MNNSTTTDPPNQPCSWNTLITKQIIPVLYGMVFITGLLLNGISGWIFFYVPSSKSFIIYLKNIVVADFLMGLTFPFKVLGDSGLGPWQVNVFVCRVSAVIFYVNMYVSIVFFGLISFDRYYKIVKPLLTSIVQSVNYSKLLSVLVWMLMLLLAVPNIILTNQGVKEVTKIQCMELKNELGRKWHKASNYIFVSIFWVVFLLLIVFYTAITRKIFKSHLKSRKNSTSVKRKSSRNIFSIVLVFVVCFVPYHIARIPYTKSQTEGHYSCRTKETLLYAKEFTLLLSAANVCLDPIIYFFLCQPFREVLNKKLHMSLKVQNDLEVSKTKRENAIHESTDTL

[2] = Table 3 comparison column, values identical to Tables 1 and 2, read-out: hP2Y14R, IC50
[3] = Table 1, hP2Y14R-CHO cells, fluorescent antagonist tracer 20 nM, mean ± SEM (n = 3-5), read-out: IC50
[4] = Table 2, hP2Y14R-CHO cells, fluorescent antagonist tracer 20 nM, mean ± SEM (n = 3-5), read-out: IC50

IC50 (hP2Y14R; [3]) | IC50 (hP2Y14R; [4]) | Compound | other results
 |  | O=C(O)c1cc(-c2ccc(C3CCNCC3)cc2)c2ccc(-c3ccc(C(F)(F)F)cc3)cc2c1 [Compound 1] | eosinophils in the bronchoalveolar lavage fluid, normalized and compared to vehicle (100±15%) [1]: 43.9±12.8%
 |  | O=C(O)c1cc(-c2ccc(N3CCNCC3)cc2)cc(-n2cc(-c3ccc(C(F)(F)F)cc3)nn2)c1 [Compound 4, 4′-(Piperazin-1-yl)-5-(4-(4-(trifluoromethyl)phenyl)-1H-1,2,3-triazol-1-yl)-[1,1′-biphenyl]-3-carboxylic acid] | IC50 (hP2Y14R; [2]): 233 ± 26 nM; IC50 (mP2Y14R): 499 ± 57 nM
195 ± 120 nM |  | CN1CCC(c2ccc(-c3cc(C(=O)O)cc4cc(-c5ccc(C(F)(F)F)cc5)ccc34)cc2)CC1 [Compound 5, 4-(4-(1-Methylpiperidin-4-yl)phenyl)-7-(4-(trifluoromethyl)phenyl)-2-naphthoic acid] | 
139 ± 19 nM |  | C#CCN1CCC(c2ccc(-c3cc(C(=O)O)cc4cc(-c5ccc(C(F)(F)F)cc5)ccc34)cc2)CC1 [Compound 6, 4-(4-(1-(Prop-2-yn-1-yl)piperidin-4-yl)phenyl)-7-(4-(trifluoromethyl)phenyl)-2-naphthoic acid] | 
133 ± 111 nM |  | CCCN1CCC(c2ccc(-c3cc(C(=O)O)cc4cc(-c5ccc(C(F)(F)F)cc5)ccc34)cc2)CC1 [Compound 7, 4-(4-(1-Propylpiperidin-4-yl)phenyl)-7-(4-(trifluoromethyl)phenyl)-2-naphthoic acid] | 
131 ± 11 nM |  | CCCCCCN1CCC(c2ccc(-c3cc(C(=O)O)cc4cc(-c5ccc(C(F)(F)F)cc5)ccc34)cc2)CC1 [Compound 9, 4-(4-(1-Hexylpiperidin-4-yl)phenyl)-7-(4-(trifluoromethyl)phenyl)-2-naphthoic acid] | 
963 ± 417 nM |  | NCCOCCOCCOCCOCCOCCOCCC(=O)N1CCC(c2ccc(-c3cc(C(=O)O)cc4cc(-c5ccc(C(F)(F)F)cc5)ccc34)cc2)CC1 [Compound 12, 4-(4-(1-(1-Amino-3,6,9,12,15,18-hexaoxahenicosan-21-oyl)piperidin-4-yl)phenyl)-7-(4-(trifluoromethyl)phenyl)-2-naphthoic acid] | 
> 100000 nM |  | NC(=O)c1cc(-c2ccc(C3CCNCC3)cc2)cc(-n2cc(-c3ccc(C(F)(F)F)cc3)nn2)c1 [Compound 15, 4′-(Piperidin-4-yl)-5-(4-(4-(trifluoromethyl)phenyl)-1H-1,2,3-triazol-1-yl)-[1,1′-biphenyl]-3-carboxamide] | 
42100 ± 8400 nM |  | N#Cc1cc(-c2ccc(C3CCNCC3)cc2)cc(-n2cc(-c3ccc(C(F)(F)F)cc3)nn2)c1 [Compound 16, 4′-(Piperidin-4-yl)-5-(4-(4-(trifluoromethyl)phenyl)-1H-1,2,3-triazol-1-yl)-[1,1′-biphenyl]-3-carbonitrile] | 
~400 nM |  | O=C(O)c1cc(-c2ccc(C34CCNCC3C4)cc2)cc(-n2cc(-c3ccc(C(F)(F)F)cc3)nn2)c1 (stereo not shown) [Compound 18, 4′-(3-Azabicyclo[4.1.0]heptan-6-yl)-5-(4-(4-(trifluoromethyl)phenyl)-1H-1,2,3-triazol-1-yl)-[1,1′-biphenyl]-3-carboxylic acid] | 
 |  | NCCCNC(=O)c1ccc(-c2cc(C(=O)O)cc(-n3cc(-c4ccc(C(F)(F)F)cc4)nn3)c2)s1 [Compound 23] | eosinophils in the bronchoalveolar lavage fluid, normalized and compared to vehicle (100±15%) [1]: 40.3±11.0%
 | 1680 ± 380 nM | NC(=O)c1ccc(-c2cc(C(=O)O)cc(-c3cn(-c4ccc(C(F)(F)F)cc4)nn3)c2)cc1 [Compound 24, 4′-Carbamoyl-5-(1-(4-(trifluoromethyl)phenyl)-1H-1,2,3-triazol-4-yl)-[1,1′-biphenyl]-3-carboxylic acid] | 
 | 3050 ± 210 nM | NC(=O)c1ccc(-c2cc(NC(=O)c3ccc(C(F)(F)F)cc3)cc(C(=O)O)c2)cc1 [Compound 27, 4′-Carbamoyl-5-(4-(trifluoromethyl)benzamido)-[1,1′-biphenyl]-3-carboxylic acid] | 
 | 6040 ± 810 nM | NC(=O)c1ccc(-c2cc(C(=O)O)cc(C(=O)Nc3ccc(C(F)(F)F)cc3)c2)cc1 [Compound 29, 4′-Carbamoyl-5-((4-(trifluoromethyl)phenyl)carbamoyl)-[1,1′-biphenyl]-3-carboxylic acid] | 
 | > 100000 nM | O=C(O)c1[nH]c(-c2ccc(C3=CCNCC3)cc2)cc1-n1cc(-c2ccc(C(F)(F)F)cc2)nn1 [Compound 33, 5-(4-(1,2,3,6-Tetrahydropyridin-4-yl)phenyl)-3-(4-(4-(trifluoromethyl)phenyl)-1H-1,2,3-triazol-1-yl)-1H-pyrrole-2-carboxylic acid] | 
 | > 100000 nM | O=C(O)c1cc(-c2ccc(C3CCNCC3)cc2)c2nc(-c3ccc(C(F)(F)F)cc3)[nH]c2c1 [Compound 35, 4-(4-(Piperidin-4-yl)phenyl)-2-(4-(trifluoromethyl)phenyl)-1H-benzo[d]imidazole-6-carboxylic acid] | 

Compound | IC50 (hP2Y14R; [3]) | IC50 (hP2Y14R; [4]) | other results
CC(C)(C)OC(=O)N1CCC(c2ccc(-c3cc(C(=O)O)cc4cc(-c5ccc(C(F)(F)F)cc5)ccc34)cc2)CC1 [Compound 10, 4-(4-(1-(tert-butoxycarbonyl)piperidin-4-yl)phenyl)-7-(4-(trifluoromethyl)phenyl)-2-naphthoic acid] | 2440 ± 1540 nM |  | 
O=C(O)c1cc(-c2ccc(C34CCN(CC3)CC4)cc2)c2ccc(-c3ccc(C(F)(F)F)cc3)cc2c1 [Compound 17, 4-(4-(Quinuclidin-4-yl)phenyl)-7-(4-(trifluoromethyl)phenyl)-2-naphthoic acid] | 20 ± 4.4 nM |  | 
O=C(O)c1cc(-c2ccc(C3CCNCC3)cc2)cc(-c2cn(-c3ccc(C(F)(F)F)cc3)nn2)c1 [Compound 25, 4′-(Piperidin-4-yl)-5-(1-(4-(trifluoromethyl)phenyl)-1H-1,2,3-triazol-4-yl)-[1,1′-biphenyl]-3-carboxylic acid] |  | 644 ± 175 nM | IC50 (hP2Y14R; [2]): 644 ± 175 nM
NCCCNC(=O)c1ccc(-c2cc(C(=O)O)cc(-c3cn(-c4ccc(C(F)(F)F)cc4)nn3)c2)s1 [Compound 26, 3-(5-((3-Aminopropyl)carbamoyl)thiophen-2-yl)-5-(1-(4-(trifluoromethyl)phenyl)-1H-1,2,3-triazol-4-yl)benzoic acid] |  | 2600 ± 560 nM | 
